Assays:
[1] = test system: Hepatotoxicity;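 on HepSE bilirubinemia: bilirubinemia hepatic side effect score drawn from the DILIps training data, a prediction system for drug-induced liver injury; call rule not given here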;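 on HepSE cholecystitis: Cholecystitis-related hepatic side effect score drawn from the DILIps (drug-induced liver injury prediction) training data set; call rule not given here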;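 on HepSE cirrhosis: cirrhosis hepatic side effect score taken from the DILIps (drug-induced liver injury prediction) training set; call rule not given here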;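 on HepSE elevated liver function tests: hepatic side effect score for raised liver function tests, as recorded in the DILIps training set used for predicting drug-induced liver injury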; on HepSE hepatic failure: call rule not given here;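 on HepSE liver fatty: hepatic side effect score for fatty liver, taken from the DILIps training set for predicting drug-induced liver injury; call rule not given here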;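 on HepSE liver function tests abnormal: hepatic side effect score taken from the DILIps (drug-induced liver injury prediction system) training data, here covering abnormal liver function test findings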
[2] = test system: Hepatotoxicity; remark: listed apart in the source;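 on HepSE bilirubinemia: bilirubinemia hepatic side effect score drawn from the DILIps training data, a prediction system for drug-induced liver injury; call rule not given here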;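 on HepSE cholecystitis: Cholecystitis-related hepatic side effect score drawn from the DILIps (drug-induced liver injury prediction) training data set; call rule not given here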;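 on HepSE cirrhosis: cirrhosis hepatic side effect score taken from the DILIps (drug-induced liver injury prediction) training set; call rule not given here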;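 on HepSE elevated liver function tests: hepatic side effect score for raised liver function tests, as recorded in the DILIps training set used for predicting drug-induced liver injury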; on HepSE hepatic failure: call rule not given here;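 on HepSE liver function tests abnormal: hepatic side effect score taken from the DILIps (drug-induced liver injury prediction system) training data, here covering abnormal liver function test findings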
[3] = test system: Hepatotoxicity; remark: listed apart in the source;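 on HepSE bilirubinemia: bilirubinemia hepatic side effect score drawn from the DILIps training data, a prediction system for drug-induced liver injury; call rule not given here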;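 on HepSE cholecystitis: Cholecystitis-related hepatic side effect score drawn from the DILIps (drug-induced liver injury prediction) training data set; call rule not given here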;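 on HepSE cirrhosis: cirrhosis hepatic side effect score taken from the DILIps (drug-induced liver injury prediction) training set; call rule not given here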;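 on HepSE elevated liver function tests: hepatic side effect score for raised liver function tests, as recorded in the DILIps training set used for predicting drug-induced liver injury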; on HepSE hepatic failure: call rule not given here;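 on HepSE liver function tests abnormal: hepatic side effect score taken from the DILIps (drug-induced liver injury prediction system) training data, here covering abnormal liver function test findings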
[4] = test system: Hepatotoxicity; remark: listed apart in the source;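 on HepSE bilirubinemia: bilirubinemia hepatic side effect score drawn from the DILIps training data, a prediction system for drug-induced liver injury; call rule not given here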;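 on HepSE cholecystitis: Cholecystitis-related hepatic side effect score drawn from the DILIps (drug-induced liver injury prediction) training data set; call rule not given here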;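 on HepSE cirrhosis: cirrhosis hepatic side effect score taken from the DILIps (drug-induced liver injury prediction) training set; call rule not given here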;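 on HepSE elevated liver function tests: hepatic side effect score for raised liver function tests, as recorded in the DILIps training set used for predicting drug-induced liver injury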; on HepSE hepatic failure: call rule not given here;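 on HepSE liver function tests abnormal: hepatic side effect score taken from the DILIps (drug-induced liver injury prediction system) training data, here covering abnormal liver function test findings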
[5] = test system: Hepatotoxicity; remark: listed apart in the source; on HepSE hepatic failure: call rule not given here
[6] = test system: Hepatotoxicity; remark: listed apart in the source; on HepSE hepatic failure: call rule not given here
[7] = test system: Hepatotoxicity; remark: listed apart in the source
[8] = test system: Hepatotoxicity; remark: listed apart in the source
[9] = test system: Hepatotoxicity; remark: listed apart in the source
[10] = test system: Hepatotoxicity; remark: listed apart in the source
[11] = test system: Hepatotoxicity; remark: listed apart in the source
[12] = test system: Hepatotoxicity; remark: listed apart in the source
[13] = test system: Hepatotoxicity; remark: listed apart in the source
[14] = test system: Hepatotoxicity; remark: listed apart in the source

Structure (SMILES) | HepSE_bilirubinemia [1] | HepSE_cholecystitis [2] | HepSE_hepatic necrosis [3] | HepSE_hepatic failure [4] | HepSE_cirrhosis [5] | HepSE_elevated liver function tests [6] | HepSE_liver function tests abnormal [7] | HepSE_liver fatty [8] | HepSE_Combined Scores [9] | HepSE_hepatitis [10] | HepSE_liver disease [11] | HepSE_cholelithiasis [12] | HepSE_jaundice [13] | HepSE_hepatomegaly [14] | also measured
[N]=O [NITRIC OXIDE] | 0 | 0 | 0 | 0 | 0 | 0 | 0 | 0 | 0 | 0 | 0 | 0 | 0 | 0 | 
O=C1CN(/N=C/c2ccc([N+](=O)[O-])o2)C(=O)N1 [NITROFURANTOIN] |  |  |  |  |  |  |  |  |  |  |  |  |  |  | HepSE_bilirubinemia ([1]; Liver): 0; HepSE_cholecystitis ([2]; Liver): 0; HepSE_hepatic necrosis ([3]; Liver): 1; HepSE_hepatic failure ([4]; Liver): 0; HepSE_cirrhosis ([5]; Liver): 0; HepSE_elevated liver function tests ([6]; Liver): 0; HepSE_liver function tests abnormal ([7]; Liver): 0; HepSE_liver fatty ([8]; Liver): 0; HepSE_Combined Scores ([9]; Liver): 3; HepSE_hepatitis ([10]; Liver): 1; HepSE_liver disease ([11]; Liver): 0; HepSE_cholelithiasis ([12]; Liver): 0; HepSE_jaundice ([13]; Liver): 1; HepSE_hepatomegaly ([14]; Liver): 0
O=[N+]([O-])OCC(CO[N+](=O)[O-])O[N+](=O)[O-] [NITROGLYCERIN] | 0 | 0 | 0 | 0 | 0 | 0 | 0 | 0 | 0 | 0 | 0 | 0 | 0 | 0 | 
CNC(=C[N+](=O)[O-])NCCSCc1csc(CN(C)C)n1 [NIZATIDINE] | 0 | 0 | 0 | 0 | 0 | 0 | 0 | 0 | 2 | 1 | 0 | 0 | 1 | 0 | 
NC[C@H](O)c1ccc(O)c(O)c1 [NOREPINEPHRINE] | 0 | 0 | 0 | 0 | 0 | 0 | 0 | 0 | 0 | 0 | 0 | 0 | 0 | 0 | 
CCn1cc(C(=O)O)c(=O)c2cc(F)c(N3CCNCC3)cc21 [NORFLOXACIN] |  |  |  |  |  |  |  |  |  |  |  |  |  |  | HepSE_bilirubinemia ([1]; Liver): 0; HepSE_cholecystitis ([2]; Liver): 0; HepSE_hepatic necrosis ([3]; Liver): 1; HepSE_hepatic failure ([4]; Liver): 1; HepSE_cirrhosis ([5]; Liver): 0; HepSE_elevated liver function tests ([6]; Liver): 1; HepSE_liver function tests abnormal ([7]; Liver): 0; HepSE_liver fatty ([8]; Liver): 0; HepSE_Combined Scores ([9]; Liver): 5; HepSE_hepatitis ([10]; Liver): 1; HepSE_liver disease ([11]; Liver): 0; HepSE_cholelithiasis ([12]; Liver): 0; HepSE_jaundice ([13]; Liver): 1; HepSE_hepatomegaly ([14]; Liver): 0
CNCCC=C1c2ccccc2CCc2ccccc21 [NORTRIPTYLINE] |  |  |  |  |  |  |  |  |  |  |  |  |  |  | HepSE_bilirubinemia ([1]; Liver): 0; HepSE_cholecystitis ([2]; Liver): 0; HepSE_hepatic necrosis ([3]; Liver): 1; HepSE_hepatic failure ([4]; Liver): 0; HepSE_cirrhosis ([5]; Liver): 0; HepSE_elevated liver function tests ([6]; Liver): 0; HepSE_liver function tests abnormal ([7]; Liver): 0; HepSE_liver fatty ([8]; Liver): 0; HepSE_Combined Scores ([9]; Liver): 3; HepSE_hepatitis ([10]; Liver): 1; HepSE_liver disease ([11]; Liver): 0; HepSE_cholelithiasis ([12]; Liver): 0; HepSE_jaundice ([13]; Liver): 1; HepSE_hepatomegaly ([14]; Liver): 0
CC1COc2c(N3CCN(C)CC3)c(F)cc3c(=O)c(C(=O)O)cn1c23 (configuration not stated) [OFLOXACIN] | 0 | 1 | 1 | 1 | 0 | 0 | 0 | 0 | 6 | 1 | 0 | 1 | 1 | 0 | 
Cc1cc2c(s1)Nc1ccccc1N=C2N1CCN(C)CC1 [OLANZAPINE] | 1 | 0 | 0 | 0 | 0 | 0 | 0 | 1 | 4 | 1 | 0 | 0 | 1 | 0 | 
CCCc1nc(C(C)(C)O)c(C(=O)OCc2oc(=O)oc2C)n1Cc1ccc(-c2ccccc2-c2nnn[nH]2)cc1 [OLMESARTAN MEDOXOMIL] | 0 | 0 | 0 | 0 | 0 | 0 | 0 | 0 | 1 | 0 | 0 | 0 | 1 | 0 | 
CN(C)CC/C=C1/c2ccccc2COc2ccc(CC(=O)O)cc21 [OLOPATADINE] | 0 | 0 | 0 | 0 | 0 | 0 | 0 | 0 | 0 | 0 | 0 | 0 | 0 | 0 | 
COc1ccc2[nH]c([S+]([O-])Cc3ncc(C)c(OC)c3C)nc2c1 (configuration not stated) [OMEPRAZOLE] | 1 | 0 | 1 | 1 | 0 | 0 | 0 | 0 | 7 | 1 | 1 | 1 | 1 | 0 | 
Cc1nccn1CC1CCc2c(c3ccccc3n2C)C1=O (configuration not stated) [ONDANSETRON] | 0 | 0 | 0 | 1 | 0 | 0 | 0 | 0 | 2 | 0 | 1 | 0 | 0 | 0 | 

— ChEMBL document CHEMBL1909294, “Translating clinical findings into knowledge in drug safety evaluation--drug induced liver injury prediction system (DILIps)” (PLoS Comput Biol, 2011)
